Test results reported in US9902728B2, “Pyrrolo and pyrazolopyrimidines as ubiquitin-specific protease 7 inhibitors” (Forma Therapeutics, Inc., priority 2014, dated 2018).

What follows are molecules tested against T1, USP7 (Homo sapiens, UniProt Q93009) (assay: USP7 Assay A (Ubitquin-Rhodamine 110 Assay)). Settings: USP7 activity in USP7 assay A and B (table does not say which assay per compound); read-out: USP7_IC50.
T1 construct: USP7, construct USP7 (208-1102) 6*His, Viva Biotech; 6xHis (C); purchased Viva Biotech
T1 sequence (Q93009 208-1102): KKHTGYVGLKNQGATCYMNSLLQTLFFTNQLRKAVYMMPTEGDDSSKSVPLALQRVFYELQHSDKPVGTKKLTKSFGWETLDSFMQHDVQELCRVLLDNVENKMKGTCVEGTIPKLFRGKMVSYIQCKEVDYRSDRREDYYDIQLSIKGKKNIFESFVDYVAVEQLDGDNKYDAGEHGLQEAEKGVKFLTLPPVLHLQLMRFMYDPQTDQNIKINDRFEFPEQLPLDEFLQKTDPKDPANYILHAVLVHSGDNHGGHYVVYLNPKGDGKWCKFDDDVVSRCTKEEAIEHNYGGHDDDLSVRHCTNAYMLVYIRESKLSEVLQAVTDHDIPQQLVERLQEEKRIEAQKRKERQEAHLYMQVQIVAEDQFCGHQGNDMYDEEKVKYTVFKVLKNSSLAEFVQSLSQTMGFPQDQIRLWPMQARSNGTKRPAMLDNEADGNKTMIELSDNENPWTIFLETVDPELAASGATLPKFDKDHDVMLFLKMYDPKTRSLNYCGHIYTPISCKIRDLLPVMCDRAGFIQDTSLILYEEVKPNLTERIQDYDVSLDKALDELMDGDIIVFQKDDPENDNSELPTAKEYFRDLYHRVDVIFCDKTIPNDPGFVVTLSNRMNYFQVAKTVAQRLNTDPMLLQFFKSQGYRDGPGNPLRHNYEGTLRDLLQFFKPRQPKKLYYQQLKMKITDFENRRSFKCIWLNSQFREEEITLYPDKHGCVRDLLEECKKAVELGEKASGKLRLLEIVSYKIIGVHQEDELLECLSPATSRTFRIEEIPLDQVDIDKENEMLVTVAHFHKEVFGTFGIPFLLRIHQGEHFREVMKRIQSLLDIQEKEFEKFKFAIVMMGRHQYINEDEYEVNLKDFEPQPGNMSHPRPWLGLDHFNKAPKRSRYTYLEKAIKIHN
Type: biochemical
How it was run: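 Enzyme and compound sat together for 30 min before Ub-Rh110 was added, in buffer of 20 mM Tris-HCl (pH 8.0), 1 mM GSH, 0.03% BGG and 0.01% Triton X-100.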

Compound	IC50 [nM]
Cc1cc(N[C@H]2CC[C@H](C(=O)N3CCC(O)(Cn4cnc5c(cnn5-c5ccc(F)cc5)c4=O)CC3)CC2)no1 [Compound I-806]	200 to 1000
O=C(C1CCc2cn[nH]c2C1)N1CCC(O)(Cn2cnc3c(cnn3-c3ccc(F)cc3)c2=O)CC1 (centres unmarked) [Compound I-724]	200 to 1000
Cn1ccc(NC2CCC(C(=O)N3CCC(O)(Cn4cnc5c(ccn5-c5ccc(F)cc5)c4=O)CC3)CC2)n1 (centres unmarked) [Compound I-1040]	1000 to 10000
Cc1ccc(-n2ncc3c(=O)n(CC4(O)CCN(C(=O)c5ccc(Cl)cc5N)CC4)cnc32)cc1 [Compound I-1140]	200 to 1000
Cc1ccc(-n2ncc3c(=O)n(CC4(O)CCN(C(=O)c5ccc(Oc6ccc(OCCO)cn6)cc5)CC4)cnc32)cc1 [Compound I-1160]	200 to 1000
O=C(c1ccc(N2CCN3CCC2CC3)cc1)N1CCC(O)(Cn2cnc3c(cnn3-c3ccc(F)cc3)c2=O)CC1 [Compound I-1682]	1000 to 10000
O=C(C[C@H](n1cccn1)C(F)(F)F)N1CCC(O)(Cn2cnc3c(cnn3-c3ccc(F)cc3)c2=O)CC1 [Compound I-912]	1000 to 10000
CN1CCN(c2ccn(-c3ccc(-n4ncc5c(=O)n(CC6(O)CCN(C(=O)C7CC7)CC6)cnc54)cc3)n2)CC1 [Compound I-818]	< 200
O=C(c1ccc(F)cc1)N1CCC(O)(Cn2cnc3c(cnn3-c3ccc(-n4cc(CO)cn4)cc3)c2=O)CC1 [Compound I-1734]	200 to 1000
O=C(C[C@@H](C(F)F)n1ccc(F)n1)N1CCC(O)(Cn2cnc3c(cnn3-c3ccc(N4CC5CC5C4)cc3)c2=O)CC1 (some centres unmarked) [Compound I-784]	< 200
CC1(C(=O)N2CCC(O)(Cn3cnc4c(cnn4-c4ccc(-n5ccc(F)n5)cc4)c3=O)CC2)CC1 [Compound I-1754]	200 to 1000
CNC1CCN(c2ccc(-c3ccc(-n4ncc5c(=O)n(CC6(O)CCN(C(=O)C7CC7)CC6)cnc54)cc3)cn2)C1 (centres unmarked) [Compound I-845]	< 200
Cn1ncc2c(=O)n(CC3(O)CCN(C(=O)CC(C(F)F)n4ccc(F)n4)CC3)cnc21 (single isomer, unassigned) [Compound I-1697]	< 200
O=C(C[C@H](C(F)F)n1ccc(Cl)n1)N1CCC(O)(Cn2cnc3c(cnn3-c3ccc(F)cc3)c2=O)CC1 [Compound I-731]	< 200
Cc1cnc(-c2ccc(C(=O)N3CCC(O)(Cn4cnc5c(cnn5-c5ccc(Cl)cc5)c4=O)CC3)cc2)n1C [Compound I-1099]	1000 to 10000
Cc1onc(Cc2ccccc2)c1C(=O)N1CCC(O)(Cn2cnc3c(cnn3-c3ccc(F)cc3)c2=O)CC1 [Compound I-1164]	< 200
Cn1cc(C2CCC(C(=O)N3CCC(O)(Cn4cnc5c(cnn5-c5ccc(F)cc5)c4=O)CC3)CC2)cn1 (centres unmarked) [Compound I-728]	200 to 1000
C[C@@H](c1ccccc1)c1nn(C)cc1C(=O)N1CCC(O)(Cn2cnc3c(cnn3-c3ccc(F)cc3)c2=O)CC1 [Compound I-1163]	1000 to 10000
O=C(C1CCC(Oc2ccc(F)cn2)CC1)N1CCC(O)(Cn2cnc3c(cnn3-c3ccc(F)cc3)c2=O)CC1 (centres unmarked) [Compound I-738]	200 to 1000
Cn1cc(-c2ccc(-n3ncc4c(=O)n(CC5(O)CCN(C(=O)c6ccc(F)cc6)CC5)cnc43)cc2)cn1 [Compound I-1672]	1000 to 10000
CN1CCN(c2cccc(-n3ncc4c(=O)n(CC5(O)CCN(C(=O)C[C@H](C(F)F)n6cccn6)CC5)cnc43)c2)CC1 [Compound I-829]	< 200
O=C(C[C@@H](C(F)F)n1ccc(F)n1)N1CCC(O)(Cn2cnc3c(cnn3-c3ccc(C(F)(F)F)cc3)c2=O)CC1 [Compound I-1037]	1000 to 10000

Same assay, conditions: USP7 assay A and B (table does not say which assay per compound); read-out: USP7_IC50

Compound	IC50 [nM]
O=C(c1ccc(Cl)cc1Cl)N1CCC(O)(Cn2cnc3c(cnn3-c3ccccc3)c2=O)CC1 [Compound I-224]	200 to 1000
CS(=N)(=O)c1ccc(-n2ncc3c(=O)n(CC4(O)CCN(C(=O)c5ccc(F)cc5)CC4)cnc32)cc1 (single isomer, unassigned) [Compound I-998, 5-((1-(4-fluorobenzoyl)-4-hydroxypiperidin-4-yl)methyl)-1-(4-(S-methylsulfonimidoyl)phenyl)-1,5-dihydro-4H-pyrazolo[3,4-d]pyrimidin-4-one]	1000 to 10000
O=C(c1ccncc1)N1CCC(O)(Cn2cnc3c(cnn3-c3ccccc3)c2=O)CC1 [Compound I-191]	1000 to 10000
Cc1ccc(-n2ncc3c(=O)n(CC4(O)CCN(C(=O)c5ccc(OC6CCC(O)CC6)cc5)CC4)cnc32)cc1 (centres unmarked) [Compound I-1141, 5-((4-Hydroxy-1-(4-(4-hydroxycyclohexyloxy)benzoyl)piperidin-4-yl)methyl)-1-p-tolyl-1H-pyrazolo[3,4-d]pyrimidin-4 (5H)-one]	1000 to 10000
O=C(C1CC1)N1CCC(O)(Cn2cnc3c(cnn3-c3cccc(C(F)(F)F)c3)c2=O)CC1 [Compound I-34]	> 10000
Cc1ccc(-n2ncc3c(=O)n(CC4(O)CCN(C(=O)C[C@H](C)c5ccccc5)CC4)cnc32)cc1 [Compound I-1139]	< 200
Cc1ccc(-n2ncc3c(=O)n(CC4(O)CCN(C(=O)c5cnc(C6CC6)o5)CC4)cnc32)cc1 [Compound I-1542]	200 to 1000
O=C(c1cc2n(n1)CCO2)N1CCC(O)(Cn2cnc3c(cnn3-c3ccc(Cl)cc3)c2=O)CC1 [Compound I-1527]	1000 to 10000
Nc1cc(Cl)ccc1C(=O)N1CCC(O)(Cn2cnc3c(cnn3-c3ccccc3)c2=O)CC1 [Compound I-232]	200 to 1000
O=C(c1ccc(-n2ccnn2)cc1)N1CCC(O)(Cn2cnc3c(cnn3-c3ccc(Cl)cc3)c2=O)CC1 [Compound I-1128]	200 to 1000
O=C(c1ccc(OC(F)F)cc1)N1CCC(O)(Cn2cnc3c(cnn3-c3cnn(C4CC4)c3)c2=O)CC1 [Compound I-705]	1000 to 10000
O=C(C1CC1)N1CCC(O)(Cn2cnc3c(cnn3-c3ccc(N4CCCc5ccccc54)cc3)c2=O)CC1 [Compound I-1082]	1000 to 10000
NC(=O)c1cccc(C(=O)N2CCC(O)(Cn3cnc4c(cnn4-c4ccccc4)c3=O)CC2)c1 [Compound I-172]	1000 to 10000
O=C(C1CC1)N1CCC(O)(Cn2cnc3c(cnn3-c3cccc(N4CCCC4)c3)c2=O)CC1 [Compound I-1200]	200 to 1000
CC(=O)N1CCN(c2ccc(-n3ncc4c(=O)n(CC5(O)CCN(C(=O)C6CC6)CC5)cnc43)cc2)CC1 [Compound I-1211]	1000 to 10000
O=C(C1CC1)N1CCC(O)(Cn2cnc3c(cnn3-c3ccc(-c4ccc(OC5CCNC5)cc4)cc3)c2=O)CC1 (centres unmarked) [Compound I-675]	200 to 1000
O=C(Nc1cccnc1)N1CCC(O)(Cn2cnc3c(cnn3-c3ccc(F)cc3)c2=O)CC1 [Compound I-1708]	1000 to 10000
O=C(c1ccc(Oc2ccccc2)cc1)N1CCC(O)(Cn2cnc3c(cnn3C3CC3)c2=O)CC1 [Compound I-152]	1000 to 10000
O=C(c1ccc(Oc2ccccn2)cc1)N1CCC(O)(Cn2cnc3c(cnn3-c3ccc(Cl)cc3)c2=O)CC1 [Compound I-1519]	1000 to 10000
O=C(C1CC1)N1CCC(O)(Cn2cnc3c(cnn3C3CCCCC3)c2=O)CC1 [Compound I-29]	> 10000
CC(CC(=O)N1CCC(O)(Cn2cnc3c(cnn3C)c2=O)CC1)n1cccc1 (centres unmarked) [Compound I-105]	200 to 1000
O=C(c1ccccc1)N1CCC(O)(Cn2cnc3c(cnn3-c3ccccc3O)c2=O)CC1 [Compound I-18, 5-((1-Benzoyl-4-hydroxypiperidin-4-yl)methyl)-1-(2-hydroxyphenyl)-1,5-dihydro-4H-pyrazolo[3,4-d]pyrimidin-4-one]	> 10000
